Experimental data published in PMC7315563, “Bioactive fluorenes. Part III: 2,7-dichloro-9H-fluorene-based thiazolidinone and azetidinone analogues as anticancer and antimicrobial against multidrug resistant strains agents” (BMC Chemistry, 2020).
In brackets after ≈: the same amount, converted by molar mass.

Columns and labels:
[1] = tested on: A549 human lung cancer cells; assay: cell viability assay (MTT); format: cell-based; conditions: 24 h; for viability at 1 µg/mL: read-out: Validity (%) for sample concentrations (µg/mL) 1; for viability at 10 µg/mL: read-out: Validity (%) for sample concentrations (µg/mL) 10; for viability at 31.25 µg/mL: read-out: Validity (%) for sample concentrations (µg/mL) 31.25; for viability at 62.5 µg/mL: 62.50 µg/mL, read-out: Validity (%) for sample concentrations (µg/mL) 62.50; for viability at 125 µg/mL: read-out: Validity (%) for sample concentrations (µg/mL) 125; for viability at 250 µg/mL: read-out: Validity (%) for sample concentrations (µg/mL) 250; for viability at 500 µg/mL: read-out: Validity (%) for sample concentrations (µg/mL) 500; for viability at 1000 µg/mL: read-out: Validity (%) for sample concentrations (µg/mL) 1000
Protocol: WI-38 normal lung fibroblast cells, A549 lung cancer cells, and MDA-MB-231 breast cancer cells were obtained from VACSERA—Cell Culture Unit, Cairo, Egypt. The cell lines were originally obtained from the American Tissue Culture Collection (ATCC). WI-38, A549, and MDA-MB-231 cell lines were cultured in RPMI-1640 medium supplemented with 10% inactivate fetal bovine serum (FBS) and 1% penicillin/streptomycin were bought (Gibco, Invitrogen, CA). WI-38, A549, and MDA-MB-231 cells were seeded into 96-well plates (at a density of 5000 cells/well). […] Cell viability was then assessed using the MTT assay (Sigma Aldrich, St. Louis, MO, USA), and the absorbance was read at 570 nm using an ELISA microplate reader (Molecular Devices, Downingtown, PA, USA).

[2] = tested on: Staphylococcus aureus (S. aureus), multidrug resistant clinical isolate; assay: agar well diffusion assay; format: cell-based; conditions: Staphylococcus aureus; S. aureus; 500 µg/mL of tested compound; 24 h
Source text: All microbial strains were kindly provided from the department of Medical Microbiology and Immunology faculty of Medicine Assiut University, these clinical isolates were obtained from clinical cases of infections admitted to Assiut University hospital as urinary tract infections, corneal ulcers, bacterial and fungal pneumonia, otomycosis, oral thrush and wound infections.
The clinical isolates used were multidrug resistant strains, they were resistant to β lactam (penicillin, amoxacillin, oxacillin), cephalosporins (cefazolin, cefaclor and cefepime) and macrolides (erythromycin and clarithromycin), they included Gram positive bacteria as Staphylococcus aureus (S. aureus), Methicillin-resistant Staphylococcus aureus (MRSA), Streptococcus pneumoniae (S. pneumoniae), and Gram negative bacteria as Escherichia coli (E. coli), Klebsiella pneumoniae (K. pneumoniae), Pseudomonas aeruginosa (P. aeruginosa), and Acinetobacter baumannii (A. baumannii). The fungal strains that were tested are Aspergillus flavus (A. flavus), A. niger (A. niger) and Candida albicans (C. albicans).
The antimicrobial activity of the fluorene derivatives was initially evaluated by agar well diffusion assay. Mueller–Hinton agar (CM0337) was poured into Petri dishes at 50–60 °C and left to solidify for 15 min. Subsequently, overnight microbial suspensions of tested strains was adjusted to turbidity of 0.5 McFarland Standard, which equals to 1–2 × 10^8 CFU/mL for bacteria and 1–5 × 10^6 for fungi. The microbial inoculums were then diluted in 1:100 ratio in case of bacteria and 1:10 ratio in case of fungi in order to get 1–5 × 10^5 CFU/mL. a sterile cotton swab was dipped into the adjusted microbial suspension and the Mueller–Hinton agar plates were inoculated by evenly streaking cotton swab over the agar medium. Then wells with a diameter of 0.5 cm were cut in the medium with a sterile cork borer. Stock solutions of the flourene derivatives were diluted in DMSO 1% to get 500 μg/mL concentrations. The tested flourene derivatives and controls (50 μL) were dispensed into the wells. The plates were incubated for 24 h at 37 °C for bacteria and C. albicans while at 25 °C for A. falvus and A. niger. The diameters of zones of inhibition (ZOI) around the wells were measured in mm. Following control agents were used: positive control agents—vancomycin (50 μg/mL) for Gram positive bacteria, gentamicin (10 μg/mL) (for Gram negative bacteria) and fluconazole 25 μg/mL for fungi and negative control agent is 1% DMSO.

[3] = tested on: MDA-MB-231 human breast cancer cells; assay: cell viability assay (MTT); format: cell-based; conditions: 24 h; for viability at 1 µg/mL: read-out: Validity (%) for sample concentrations (µg/mL) 1; for viability at 10 µg/mL: read-out: Validity (%) for sample concentrations (µg/mL) 10; for viability at 31.25 µg/mL: read-out: Validity (%) for sample concentrations (µg/mL) 31.25; for viability at 62.5 µg/mL: read-out: Validity (%) for sample concentrations (µg/mL) 62.5; for viability at 125 µg/mL: read-out: Validity (%) for sample concentrations (µg/mL) 125; for viability at 250 µg/mL: read-out: Validity (%) for sample concentrations (µg/mL) 250; for viability at 500 µg/mL: read-out: Validity (%) for sample concentrations (µg/mL) 500
Protocol: (§1) WI-38 normal lung fibroblast cells, A549 lung cancer cells, and MDA-MB-231 breast cancer cells were obtained from VACSERA—Cell Culture Unit, Cairo, Egypt. The cell lines were originally obtained from the American Tissue Culture Collection (ATCC). WI-38, A549, and MDA-MB-231 cell lines were cultured in RPMI-1640 medium supplemented with 10% inactivate fetal bovine serum (FBS) and 1% penicillin/streptomycin were bought (Gibco, Invitrogen, CA). WI-38, A549, and MDA-MB-231 cells were seeded into 96-well plates (at a density of 5000 cells/well). On the following day, cells were treated with different concentrations (0, 1, 10, 31.25, 62.5, 125, 250, 500 µg/mL) of 16 fluorene derivatives in fresh medium and incubated for another 24 h. Cell viability was then assessed using the MTT assay (Sigma Aldrich, St. Louis, MO, USA), and the absorbance was read at 570 nm using an ELISA microplate reader (Molecular Devices, Downingtown, PA, USA).

[4] = tested on: WI-38 human normal fibroblast cells; assay: cell viability assay (MTT); format: cell-based; conditions: 24 h; for viability at 31.25 µg/mL: read-out: Validity (%) for sample concentrations (µg/mL) 31.25; for viability at 62.5 µg/mL: 62.50 µg/mL, read-out: Validity (%) for sample concentrations (µg/mL) 62.50; for viability at 125 µg/mL: read-out: Validity (%) for sample concentrations (µg/mL) 125; for viability at 250 µg/mL: read-out: Validity (%) for sample concentrations (µg/mL) 250; for viability at 500 µg/mL: read-out: Validity (%) for sample concentrations (µg/mL) 500
Protocol: as §1

Row | Compound | IC50 [1] | melting point | IC50 [3] | viability at 1 µg/mL [1] | viability at 10 µg/mL [1] | viability at 31.25 µg/mL [1] | viability at 62.5 µg/mL [1] | viability at 125 µg/mL [1] | viability at 250 µg/mL [1] | viability at 500 µg/mL [1] | viability at 1000 µg/mL [1] | viability at 1 µg/mL [3] | viability at 10 µg/mL [3] | viability at 31.25 µg/mL [3] | viability at 62.5 µg/mL [3] | viability at 125 µg/mL [3] | viability at 250 µg/mL [3] | viability at 500 µg/mL [3] | viability at 31.25 µg/mL [4] | IC50 [4] | also measured
1 | COc1ccc(C2SCC(=O)N2c2nc(-c3cc(Cl)cc4c3-c3ccc(Cl)cc3C4)cs2)cc1 (centres unmarked) [5b, 3-(4-(2,7-Dichloro-9H-fluoren-4-yl)thiazol-2-yl)-2-(4-methoxyphenyl)thiazolidin-4-one] | 402 µg/mL (≈ 765 µM) | 74 to 76 °C | > 500 µg/mL | 91.2% | 85.4% | 84% | 67.8% | 64.3% | 57.1% | 44.2% | 17.8% | 97.8% | 97.4% | 90.8% | 88.6% | 87.3% | 83.6% | 81.5% | 99.4% | > 500 µg/mL | zone of inhibition at 500 µg/mL [2]: 4 mm; viability at 62.5 µg/mL [4]: 94.4%; viability at 125 µg/mL [4]: 91.3%; viability at 250 µg/mL [4]: 81.2%; viability at 500 µg/mL [4]: 79%
2 | CN(C)c1ccc(C2SCC(=O)N2c2nc(-c3cc(Cl)cc4c3-c3ccc(Cl)cc3C4)cs2)cc1 (centres unmarked) [5e, 3-(4-(2,7-Dichloro-9H-fluoren-4-yl)thiazol-2-yl)-2-(4-(dimethylamino)phenyl)thiazolidin-4-one] | 847 µg/mL (≈ 1570 µM) | 94 to 96 °C | > 500 µg/mL | 93.4% | 90.2% | 85.6% | 77.3% | 72.2% | 65.7% | 62.2% | 48.9% | 97.3% | 96.3% | 93.6% | 92.6% | 85.5% | 75.9% | 73.7% | 92.4% | > 500 µg/mL | viability at 62.5 µg/mL [4]: 85.7%; viability at 125 µg/mL [4]: 74.4%; viability at 250 µg/mL [4]: 69.3%; viability at 500 µg/mL [4]: 62.9%
3 | O=C(O)c1ccc(C2C(Cl)C(=O)N2c2nc(-c3cc(Cl)cc4c3-c3ccc(Cl)cc3C4)cs2)cc1 (centres unmarked) [6g, 4-(3-Chloro-1-(4-(2,7-dichloro-9H-fluoren-4-yl)thiazol-2-yl)-4-oxoazetidin-2-yl)benzoic acid] | 308 µg/mL (≈ 568 µM) | 125 to 127 °C | > 500 µg/mL | 94.5% | 90.1% | 86.9% | 73.5% | 68.9% | 63.1% | 18.4% | 14.4% | 96.7% | 93.9% | 91.2% | 82.9% | 71.1% | 65.5% | 55.6% | 73.9% | 40 µg/mL (≈ 73.8 µM) | viability at 62.5 µg/mL [4]: 42%; viability at 125 µg/mL [4]: 37.4%; viability at 250 µg/mL [4]: 35.7%; viability at 500 µg/mL [4]: 30.6%
4 | CC(=O)O[C@H]1C(=O)[C@@]2(C)[C@H]([C@H](OC(=O)c3ccccc3)[C@]3(O)C[C@H](OC(=O)[C@H](O)[C@@H](NC(=O)c4ccccc4)c4ccccc4)C(C)=C1C3(C)C)[C@]1(OC(C)=O)CO[C@@H]1C[C@@H]2O [Taxol, reference compound] | 2.3 µg/mL (≈ 2.69 µM) |  | 40 µg/mL (≈ 46.8 µM) |  |  |  |  |  |  |  |  |  |  |  |  |  |  |  |  | 41 µg/mL (≈ 48 µM) | 

Further lines, with some results ahead:

Row | IC50 [1] | melting point | IC50 [3] | Compound | viability at 1 µg/mL [1] | viability at 10 µg/mL [1] | viability at 31.25 µg/mL [1] | viability at 62.5 µg/mL [1] | viability at 125 µg/mL [1] | viability at 250 µg/mL [1] | viability at 500 µg/mL [1] | viability at 1000 µg/mL [1] | viability at 1 µg/mL [3] | viability at 10 µg/mL [3] | viability at 31.25 µg/mL [3] | viability at 62.5 µg/mL [3] | viability at 125 µg/mL [3] | viability at 250 µg/mL [3] | viability at 500 µg/mL [3] | viability at 31.25 µg/mL [4] | IC50 [4] | also measured
5 | 413 µg/mL (≈ 834 µM) | 79 to 82 °C | > 500 µg/mL | O=C1CSC(c2ccccc2)N1c1nc(-c2cc(Cl)cc3c2-c2ccc(Cl)cc2C3)cs1 (centres unmarked) [5a, 3-(4-(2,7-Dichloro-9H-fluoren-4-yl)thiazol-2-yl)-2-phenylthiazolidin-4-one] | 95.6% | 91.4% | 86.8% | 82.3% | 79.7% | 75.4% | 45.5% | 12.5% | 98.3% | 96.7% | 93.6% | 86.1% | 85.9% | 82.5% | 75.8% | 89.8% | > 500 µg/mL | zone of inhibition at 500 µg/mL [2]: 3 mm; viability at 62.5 µg/mL [4]: 83.3%; viability at 125 µg/mL [4]: 80.6%; viability at 250 µg/mL [4]: 77.3%; viability at 500 µg/mL [4]: 74.3%
6 | 567 µg/mL (≈ 1050 µM) | 90 to 92 °C | > 500 µg/mL | O=C1CSC(c2ccc([N+](=O)[O-])cc2)N1c1nc(-c2cc(Cl)cc3c2-c2ccc(Cl)cc2C3)cs1 (centres unmarked) [5f, 3-(4-(2,7-Dichloro-9H-fluoren-4-yl)thiazol-2-yl)-2-(4-nitrophenyl)thiazolidin-4-one] | 95% | 89.8% | 87% | 83.8% | 79.2% | 75.4% | 65.5% | 12.6% | 98.1% | 97.2% | 89% | 84.7% | 81% | 79.6% | 77.5% | 82.5% | > 500 µg/mL | viability at 62.5 µg/mL [4]: 81.9%; viability at 125 µg/mL [4]: 77%; viability at 250 µg/mL [4]: 74.3%; viability at 500 µg/mL [4]: 67.8%
7 | 613 µg/mL (≈ 1220 µM) | 165 to 167 °C | 330 µg/mL (≈ 658 µM) | O=C1CSC(c2cccs2)N1c1nc(-c2cc(Cl)cc3c2-c2ccc(Cl)cc2C3)cs1 (centres unmarked) [5k, 3-(4-(2,7-Dichloro-9H-fluoren-4-yl)thiazol-2-yl)-2-(thiophen-2-yl)thiazolidin-4-one] | 95.2% | 92.3% | 85.9% | 83.9% | 79.6% | 76.9% | 60.9% | 22.6% | 92.3% | 85.8% | 68.7% | 60.8% | 56.7% | 50.6% | 43% | 80.8% | 288 µg/mL (≈ 574 µM) | viability at 62.5 µg/mL [4]: 71.4%; viability at 125 µg/mL [4]: 64.8%; viability at 250 µg/mL [4]: 51.4%; viability at 500 µg/mL [4]: 41.9%
